Measurements reported in US20030215564A1, “Method and apparatus for coating an endoprosthesis” (priority 2002, published 2003).

Assays:
Type in all cases: physicochemical
[1] = Amount of paclitaxel deposited on Palmaz-Schatz stents, manual coating method (HPLC)
Method: In this example, Palmaz-Schatz stents were coated with paclitaxel using a manual method. The amount of paclitaxel deposited was then determined.
Each stent was then removed from the reservoir, shaken briskly, and allowed to dry. […] The solvent system consisted of 45% acetonitrile and 55% water delivered by a pair of Gilson 305/306 pumps with a flow rate of 1.5 ml/minute.

[2] = Effect of stent expansion on paclitaxel content of spin-coated stents (HPLC); conditions: spin-coated 12,000 RPM two seconds, 44 mg/ml ethanolic paclitaxel
Excerpt: After a stent is crimped onto a catheter as in example 4, it is ready for deployment in the body. The stent is properly positioned with a catheter, and is then expanded, for example by inflation of a balloon tip around which the stent is mounted. The balloon inflation expands the stent and forces it into proper position in the wall of the hollow organ. This has an additional physical impact on the stent, and has the potential to further degrade its coating.

[3] = Effect of crimping on amount of paclitaxel on manually coated stents (HPLC); conditions: manual coating, after crimping
Excerpt: Prior to being deployed inside a blood vessel, some vascular stents must be crimped onto a balloon-tipped catheter. Once the stent is positioned on the catheter, the catheter-stent assembly is advanced in the blood vessel to the site of obstruction. The balloon is then expanded, which deploys the stent in its proper position.
Since the manual coating method leads to uneven, fragile coating (see Examples 1-3), it seemed likely that the process of crimping would exacerbate the problem of flaking and drug loss. To demontstrate this problem, the amount of paclitaxel on stents before and after crimping was determined. […] Each stent was then removed from the reservoir, shaken briskly, and allowed to dry.

[4] = Effect of crimping on amount of paclitaxel on spin-coated stents (HPLC)
Excerpt: Each stent was then removed from the reservoir, shaken briskly, and allowed to dry.

## CC(=O)O[C@H]1C(=O)[C@@]2(C)[C@H]([C@H](OC(=O)c3ccccc3)[C@]3(O)C[C@H](OC(=O)[C@H](O)[C@@H](NC(=O)c4ccccc4)c4ccccc4)C(C)=C1C3(C)C)[C@]1(OC(C)=O)CO[C@@H]1C[C@@H]2O [Paclitaxel, paclitaxel]
[1]; paclitaxel 13 mg/ml in 95% ethanol
  Amount of drug deposited (mean ± standard deviation): 19.5 ± 7.7 µg
[1]; paclitaxel 27 mg/ml in 95% ethanol
  Amount of drug deposited (mean ± standard deviation): 59.8 ± 17.6 µg
[1]; paclitaxel 37 mg/ml in 95% ethanol
  Amount of drug deposited (mean ± standard deviation): 80.4 ± 27.7 µg
[1]; paclitaxel 42 mg/ml in 95% ethanol
  Amount of drug deposited (mean ± standard deviation): 141.3 ± 43.0 µg
[1]; paclitaxel 66 mg/ml in 95% ethanol
  Amount of drug deposited (mean ± standard deviation): 198.3 ± 72.0 µg
[2]; crimp-mounted, expanded in water
  paclitaxel amount, expanded stent: 26.9 µg
[2]; unexpanded
  mean paclitaxel amount, unexpanded stents: 32.8±5.9 μg/stent
[3]; paclitaxel 37 mg/ml
  Amount of drug—crimped (mean ± standard deviation): 57.9 ± 33.0 µg
[3]; paclitaxel 42 mg/ml
  Amount of drug—crimped (mean ± standard deviation): 127.1 ± 34.6 µg
[3]; paclitaxel 66 mg/ml
  Amount of drug—crimped (mean ± standard deviation): 106.3 ± 53.8 µg
[4]; paclitaxel 18 mg/ml
  Amount of drug—crimped (mean ± standard deviation): 6.4 ± 2.1 µg
[4]; paclitaxel 28 mg/ml
  Amount of drug—crimped (mean ± standard deviation): 12.6 ± 1.2 µg
